Data published in patent US20240293387A1, “Methods of Treating Fabry Disease in Pediatric Patients” (Amicus Therapeutics, Inc., priority 2021, published 2024).
Where two headings read alike, the source gives them in different places.

Legend:
[1] = system: patients with Fabry disease with amenable mutations; type: in vivo, human
Procedure: These analyses included data from 4 Phase 2 and 4 Phase 3 clinical trials with the data cutoff of Feb.
FAB-CL-202 (NCT00283959), FAB-CL-203 (NCT00283933), and FAB-CL-204 (NCT00304512) were phase 2, open-label, noncomparative studies that evaluated the safety, tolerability, pharmacokinetics (PK), and pharmacodynamics (PD) of migalastat (dose range: 50-250 mg) in patients with Fabry disease.
FAB-CL-205 (NCT0052607) was a phase 2, long-term, open-label extension (OLE) study for patients completing phase 2 clinical trials, including FAB-CL-202, FAB-CL-203, and FAB-CL-204. The study included a period with migalastat 150 mg every other day (QOD), then a dose-escalation period, followed by 150 mg QOD.
FACETS (AT1001-011, NCT00925301) was a phase 3, placebo-controlled study designed to evaluate the efficacy, safety, and PD of 6 months of migalastat 150 mg QOD versus placebo, followed by an 18-month open label extension (OLE) of migalastat in ERT-naive patients with Fabry disease and migalastat-amenable GLA variants.
AT1001-041 (NCT01458119) was a long-term OLE study evaluating the long-term safety and efficacy of migalastat in patients completing FAB-CL-205, AT1001-011, or AT1001-012
AT1001-042 (NCT02194985) is an ongoing, long-term OLE study evaluating the long-term safety and efficacy of migalastat in patients who participated in AT1001-012 or AT1001-041.
The analysis evaluates CBV events reported as treatment-emergent adverse events (TEAEs) during migalastat 150 mg QOD treatment in patients with amenable mutations in phase 2 and phase 3 clinical trials.
CBV events were identified by searching medical history and TEAE listings with stroke-related terms, including brain stem ischemia, cerebral infarction, cerebral hemorrhage, cerebral ischemia, cerebrovascular accident, embolic stroke, and TIA.
Only amenable patients who received at least 1 dose of migalastat 150 mg QOD were included in this analysis.

[2] = Population PK (popPK) model of migalastat in adults (NONMEM, bootstrap); set-up: species or system human; settings: for Typical V2/F, Estimate (% RSE): Fabry disease; for Typical V2/F, Estimate (% RSE) / Typical Q/F, Estimate (% RSE) / Typical V3/F, Estimate (% RSE): body weight ≥ 70 kg
Procedure: A population pharmacokinetics (popPK) model previously developed from healthy adult volunteers and adult patients with Fabry disease after oral migalastat administration. After pooling plasma concentration-time data from Phase I, II, and III studies of AT1001 administered orally in adults using a range of doses from 25 mg to 675 mg and regimens under fasting conditions. […] In contrast, other covariates such as sex, age, drug formulation (solution or suspension vs 25 mg capsule vs 150 mg capsule) were not statistically/clinically significant. Since renal function gradually increases from birth and reaches adult levels by the second year of life (Rubin 1949), there are no expected age-dependent changes in eGFR in the pediatric population 2 years and older than adults. Additionally, pediatric patients with Fabry disease usually have a normal renal function or may experience renal hyperfiltration (Hopkin 2008); therefore, weight-based dosing regimens, assuming that pediatrics have a normal renal function, were planned for the simulations in pediatric Fabry patients. NONMEM program was used to develop the population PK model of migalastat in adults using first-order conditional estimation with interaction (FOCE-I). Simulations were conducted using NONMEM to obtain plasma concentration-time; all graphical analyses were performed using R; noncompartmental analysis and pharmacokinetic parameters summaries were conducted using Phoenix WinNonlin. Bootstrapping and visual predictive checks (VPC)s were conducted using Perl-speaks-NONMEM (PsN) R packages of popED and mrgsolve were used in the optimal sampling strategy. […] The overall purpose of the model development was to come up with a model for pediatric extrapolation. […] Moreover, pediatric CLT/F values extrapolated from the non-renal model were higher than the overall CLT/F approach, resulting in higher pediatric doses for achieving equivalent exposures with adults which was a less conservative approach. Therefore, the overall CLT/F scaling approach is more conservative and was chosen for the final model, which is shown in Table 6. The estimated parameters from bootstrap (see Table 6) were nearly identical to those estimated from the original dataset. All parameters were estimated with adequate precision.

## OC[C@H]1NC[C@H](O)[C@@H](O)[C@H]1O [migalastat, (2R,3S,4R,5S)-2-(hydroxymethyl) piperdine-3,4,5-triol]
[1]; 150 mg QOD, FACETS (n = 48)
  Any CBV event during treatment, unique patients: 3 (6%)
  Brain stem ischemia during treatment, patients: 1 (2%)
  Cerebral hemorrhage during treatment, patients: 1 (2%)
  Cerebral infarction during treatment, patients: 0
  Cerebral ischemia during treatment, patients: 0
  Cerebrovascular accident during treatment, patients: 0
  Embolic stroke during treatment, patients: 0
  Transient ischemic attack during treatment, patients: 1 (2%)
[1]; 150 mg QOD, N = 114
  Number of CBV events reported during treatment: 11
[1]; 150 mg QOD, Total (N = 114)
  Brain stem ischemia during treatment, patients: 1 (1%)
  Cerebral hemorrhage during treatment, patients: 1 (1%)
  Cerebral infarction during treatment, patients: 1 (1%)
  Cerebral ischemia during treatment, patients: 1 (1%)
  Cerebrovascular accident during treatment, patients: 1 (1%)
  Embolic stroke during treatment, patients: 0
  Transient ischemic attack during treatment, patients: 4 (4%)
[1]; 150 mg QOD, of 11 CBV events
  CBV events categorized as serious adverse events (SAE): Seven
  CBV events considered related to treatment: None
  CBV events mild or moderate in severity: 82%
  CBV events that led to treatment discontinuation: Two
[1]; 8 patients with CBV events
  Time on migalastat 150 mg QOD at first event onset, mean (SD): 1.1 (1.1) years
[1]; among the 16 patients with pre-migalastat CBV event
  Patients with pre-migalastat CBV event who did not experience new CBV event during treatment: 10 (63%)
[1]; average of 4 years of migalastat
  Overall incidence of CBV events during migalastat treatment: low
[2]; Bootstrap
  EGFR-related exponential index on CL/F, Estimate (% RSE): 0.925 (5.25%);
  Fractional Change in V2/F in subjects without Fabry disease (decrease in V2/F), Estimate (% RSE): −0.305 (12.3%);
  Fractional Change in total CL/F in subjects without Fabry disease (decrease in total CL/F), Estimate (% RSE): −0.151 (23.5%);
  Ka (intercept), Estimate (% RSE): 0.256 (8.60%); h^−1
  Ka (slope), Estimate (% RSE): 0.282 (7.45%);
  Lag time, Estimate (% RSE): 0.176 (4.52%); h
  Typical V2/F, Estimate (% RSE): 69.7 (4.8%); L
  Typical Q/F, Estimate (% RSE): 1.01 (4.59%); L/h
  Typical V3/F, Estimate (% RSE): 27.5 (11.9%); L
[2]; NONMEM
  EGFR-related exponential index on CL/F, Estimate (% RSE): 0.922 (5.64%);
  Fractional Change in V2/F in subjects without Fabry disease (decrease in V2/F), Estimate (% RSE): −0.306 (12.8%);
  Fractional Change in total CL/F in subjects without Fabry disease (decrease in total CL/F), Estimate (% RSE): 0.150 (24.9%);
  Ka (intercept), Estimate (% RSE): 0.256 (9.41%); h^−1
  Ka (slope), Estimate (% RSE): 0.284 (9.12%);
  Lag time, Estimate (% RSE): 0.175 (4.65%); h
  Typical V2/F, Estimate (% RSE): 70.1 (5.29%); L
  Typical Q/F, Estimate (% RSE): 1.00 (5.17%); L/h
  Typical V3/F, Estimate (% RSE): 27.5 (11.7%); L
[2]; body weights between 50 and 170 kg
  Average difference in migalastat exposure with subject weight: < 2 fold
[2]; oral, regardless of the absorption model chosen
  Time within which the drug is considered fairly fully absorbed: 7 to 10 h
